Results from paper PMC5048337 (2016).

Experiments:
[1] = test system: bcl2 (FAM/TAMRA) (DNA, G4) AGGGGCGGGCGCGGGAGGAAGGGGGCGGGAGCGGGGCTG; assay: FRET melting; conditions: 60 mM potassium cacodylate; pH 7.4; 1 μM compound, 0.2 μM oligonucleotide
[2] = test system: c-Kit1 (DNA, G4) AGGGAGGGCGCTGGGAGGAGGG; assay: UV-Vis titration, intrinsic method (Rodger and Nordén); conditions: K+ 100 mM (KCl); 50 mM Tris-HCl, pH 7.5, 25 °C
[3] = test system: h-TERT (FAM/TAMRA) (DNA, G4) GGGGGCTGGGCCGGGGACCCGGGAGGGGTCGGGACGGGGCGGGG; assay: FRET melting; conditions: 60 mM potassium cacodylate; pH 7.4; 1 μM compound, 0.2 μM oligonucleotide
[4] = test system: bcl2 (DNA, G4) AGGGGCGGGCGCGGGAGGAAGGGGGCGGGAGCGGGGCTG; assay: UV-Vis titration, reciprocal plot (Wolfe); conditions: K+ 100 mM (KCl); 50 mM Tris-HCl, pH 7.5, 25 °C
[5] = test system: bcl2 (DNA, G4) AGGGGCGGGCGCGGGAGGAAGGGGGCGGGAGCGGGGCTG; assay: UV-Vis titration, intrinsic method (Rodger and Nordén); conditions: K+ 100 mM (KCl); 50 mM Tris-HCl, pH 7.5, 25 °C
[6] = test system: h-TERT (DNA, G4) GGGGGCTGGGCCGGGGACCCGGGAGGGGTCGGGACGGGGCGGGG; assay: as above; conditions: K+ 100 mM (KCl); 50 mM Tris-HCl, pH 7.5, 25 °C
[7] = test system: c-Kit1 (FAM/TAMRA) (DNA, G4) AGGGAGGGCGCTGGGAGGAGGG; assay: FRET melting; conditions: 60 mM potassium cacodylate; pH 7.4; 1 μM compound, 0.2 μM oligonucleotide
[8] = test system: h-TERT (DNA, G4) GGGGGCTGGGCCGGGGACCCGGGAGGGGTCGGGACGGGGCGGGG; assay: UV-Vis titration, reciprocal plot (Wolfe); conditions: K+ 100 mM (KCl); 50 mM Tris-HCl, pH 7.5, 25 °C
[9] = test system: c-Kit1 (DNA, G4) AGGGAGGGCGCTGGGAGGAGGG; assay: UV-Vis titration, reciprocal plot (Wolfe); conditions: K+ 100 mM (KCl); 50 mM Tris-HCl, pH 7.5, 25 °C

binding [1]	K b [2]	binding [3]	K b [4]	K b [5]	K b [6]	binding [7]	K b [8]	K b [9]	Compound
yes	(4.9 ± 0.3) × 10^4 M^–1	yes	(2.0 ± 0.4) × 10^5 M^–1	(3.4 ± 0.3) × 10^4 M^–1	(3.7 ± 0.4) × 10^4 M^–1	yes	(1.1 ± 0.1) × 10^5 M^–1	(2.4 ± 0.5) × 10^5 M^–1	CC[N+](CC)(CC)Cc1ccc([O-])c(C=NCCN=Cc2cc(C[N+](CC)(CC)CC)ccc2[O-])c1.[Ni+2]
yes		yes				yes			CC[N+](CC)(CC)Cc1ccc([O-])c(C=NCCN=Cc2cc(C[N+](CC)(CC)CC)ccc2[O-])c1.[Cu+2]
